target: T1, recombinant glucosyltransferase domain of C. difficile Toxin B/TcdB (Clostridioides difficile, UniProt P18177); assay: biochemical
T1 construct: 6-His (C); purchased R&D Systems 6246-GT
T1 sequence (P18177 1-543): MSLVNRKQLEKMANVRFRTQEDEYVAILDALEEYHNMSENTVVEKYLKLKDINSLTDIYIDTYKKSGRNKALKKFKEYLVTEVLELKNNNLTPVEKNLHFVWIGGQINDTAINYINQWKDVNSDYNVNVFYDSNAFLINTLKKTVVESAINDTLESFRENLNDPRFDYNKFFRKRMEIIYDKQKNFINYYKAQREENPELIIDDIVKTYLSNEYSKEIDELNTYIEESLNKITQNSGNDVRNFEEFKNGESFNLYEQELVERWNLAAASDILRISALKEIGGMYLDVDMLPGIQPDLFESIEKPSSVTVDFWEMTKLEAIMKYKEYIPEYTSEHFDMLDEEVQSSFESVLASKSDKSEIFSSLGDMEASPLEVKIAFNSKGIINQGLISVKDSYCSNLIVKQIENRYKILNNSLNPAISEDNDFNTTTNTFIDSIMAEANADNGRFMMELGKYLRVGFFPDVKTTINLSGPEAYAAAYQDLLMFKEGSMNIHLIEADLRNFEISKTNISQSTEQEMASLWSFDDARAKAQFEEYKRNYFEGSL

| SMILES | IC50 [nM] |
| --- | --- |
| O=C(O)c1ccc(CN2C(=O)c3ccc(Cl)cc3NC(=O)[C@H]2Cc2ccccn2)cc1-c1cccc(F)c1 [Example 8k, (R)-5-((8-chloro-2,5-dioxo-3-(pyridin-2-ylmethyl)-2,3-dihydro-1H-benzo[e][1,4]diazepin-4(5H)-yl)methyl)-3′-fluoro-[1,1′-biphenyl]-2-carboxylic acid] | 100 to 999 |
| Cc1cccc(C(=O)Nc2ccc(CN3C(=O)c4ccc(Cl)cc4NC(=O)[C@H]3Cc3ccccn3)cc2)n1 [Example 26d] | 1000 to 10000 |
| Cc1ccnc(NC(=O)c2ccc(CN3C(=O)c4ccc(Cl)cc4NC(=O)[C@H]3Cc3cccnc3)cc2)c1 [Example 4s, (R)-4-((8-chloro-2,5-dioxo-3-(pyridin-3-ylmethyl)-2,3-dihydro-1H-benzo[e][1,4]diazepin-4(5H)-yl)methyl)-N-(4-methylpyridin-2-yl)benzamide] | < 100 |
| Cn1cc(C(=O)N2CCC(CN3C(=O)c4ccc(Cl)cc4NC(=O)[C@H]3Cc3ccccn3)CC2)c2ncccc21 [Example 43a, (R)-8-Chloro-4-((1-(1-methyl-1H-pyrrolo[3,2-b]pyridine-3-carbonyl)piperidin-4-yl)methyl)-3-(pyridin-2-ylmethyl)-3,4-dihydro-1H-benzo[e][1,4]diazepine-2,5-dione] | 1000 to 10000 |
| O=C(O)c1ccc(CN2C(=O)c3ccc(Cl)cc3NC(=O)[C@H]2Cc2ccccc2Cl)cc1 [Example 3i] | 1000 to 10000 |
| CC1(C)CN(C(=O)c2ccc(CN3C(=O)c4ccc(Cl)cc4NC(=O)[C@H]3Cc3ccccn3)cc2Cl)c2ncc(C(F)(F)F)cc21 [Example 5aw, (R)-8-chloro-4-(3-chloro-4-(3,3-dimethyl-5-(trifluoromethyl)-2,3-dihydro-1H-pyrrolo[2,3-b]pyridine-1-carbonyl)benzyl)-3-(pyridin-2-ylmethyl)-3,4-dihydro-1H-benzo[e][1,4]diazepine-2,5-dione] | < 100 |
| O=C(Nc1ccc(CN2C(=O)c3ccc(Cl)cc3NC(=O)[C@H]2Cc2ccccn2)cc1)c1ccncn1 [Example 27c] | 100 to 999 |
| O=C1Nc2cc(Cl)ccc2C(=O)N(C[C@H]2CC[C@H](C(=O)N3CCc4cccnc43)CC2)[C@@H]1Cc1ccccn1 [Example 4cg, (R)-8-chloro-4-(((1r,4R)-4-(2,3-dihydro-1H-pyrrolo[2,3-b]pyridine-1-carbonyl)cyclohexyl)methyl)-3-(pyridin-2-ylmethyl)-3,4-dihydro-1H-benzo[e][1,4]diazepine-2,5-dione] | < 100 |
| O=C(Nc1ccccn1)c1ccc(CN2C(=O)c3ccc(Cl)cc3NC(=O)[C@H]2Cc2ccc(Cl)cc2)cc1 [Example 4j, (R)-4-((8-chloro-3-(4-chlorobenzyl)-2,5-dioxo-2,3-dihydro-1H-benzo[e][1,4]diazepin-4(5H)-yl)methyl)-N-(pyridin-2-yl)benzamide] | 1000 to 10000 |
| C[C@@H]1C(=O)Nc2cc(Cl)ccc2C(=O)N1Cc1ccc(C(=O)Nc2ccc(C(F)(F)F)cn2)c(-c2ccc3c(c2)OCO3)c1 [Example 54a] | 1000 to 10000 |
| O=C(O)c1ccc(CN2C(=O)c3ccc(Br)cc3NC(=O)[C@H]2Cc2cccnc2)cc1 [Example 1g] | 1000 to 10000 |
| CC(=O)Nc1ccc2c(c1)NC(=O)[C@@H](C)N(Cc1ccc(C(=O)Nc3ccc(C)cn3)cc1)C2=O [Example 17a, (R)-4-((8-Acetamido-3-methyl-2,5-dioxo-2,3-dihydro-1H-benzo[e][1,4]diazepin-4(5H)-yl)methyl)-N-(5-methylpyridin-2-yl)benzamide] | 100 to 999 |
| N#Cc1ccc(NC(=O)c2ccc(CN3C(=O)c4ccc(Cl)cc4NC(=O)[C@H]3Cc3ccccn3)cc2Cl)nc1 [Example 5au, (R)-2-chloro-4-((8-chloro-2,5-dioxo-3-(pyridin-2-ylmethyl)-2,3-dihydro-1H-benzo[e][1,4]diazepin-4(5H)-yl)methyl)-N-(5-cyanopyridin-2-yl)benzamide] | < 100 |
| O=C(c1ccc(CN2C(=O)c3ccc(Cl)cc3NC(=O)[C@H]2Cc2ccccn2)cc1)c1cccc2cccnc12 [Example 31b] | 1000 to 10000 |
| Nc1cccnc1C(=O)Nc1ccc(CN2C(=O)c3ccc(Cl)cc3NC(=O)[C@H]2Cc2ccccn2)cc1 [Example 45a, (R)-3-Amino-N-(4-((8-chloro-2,5-dioxo-3-(pyridin-2-ylmethyl)-2,3-dihydro-1H-benzo[e][1,4]diazepin-4(5H)-yl)methyl)phenyl)picolinamide] | < 100 |
| O=C(Nc1ccccn1)c1ccc(CN2C(=O)c3ccncc3NC(=O)[C@H]2Cc2cccnc2)cc1 [Example 35n] | 100 to 999 |
| Cc1ccc(NC(=O)c2ccc(CN3C(=O)c4ccc(NC(=O)c5cccnc5)cc4NC(=O)[C@H]3C)cc2)nc1 [Example 18e, (R)-N-(3-methyl-4-(4-((5-methylpyridin-2-yl)carbamoyl)benzyl)-2,5-dioxo-2,3,4,5-tetrahydro-1H-benzo[e][1,4]diazepin-8-yl)nicotinamide] | 1000 to 10000 |
| Cc1cccnc1NC(=O)c1ccc(CN2C(=O)c3ccc(Cl)cc3NC(=O)[C@H]2Cc2cccnc2)cc1 [Example 4k, (R)-4-((8-chloro-2,5-dioxo-3-(pyridin-3-ylmethyl)-2,3-dihydro-1H-benzo[e][1,4]diazepin-4(5H)-yl)methyl)-N-(3-methylpyridin-2-yl)benzamide] | 100 to 999 |
| O=C(Nc1ccccn1)c1ccc(CN2C(=O)c3ccc(Cl)cc3NC(=O)C2Cc2cnccn2)cc1 (stereo not shown) [Example 4bu, 4-((8-chloro-2,5-dioxo-3-(pyrazin-2-ylmethyl)-2,3-dihydro-1H-benzo[e][1,4]diazepin-4(5H)-yl)methyl)-N-(pyridin-2-yl)benzamide] | < 100 |
| CN1CCC(C(=O)Nc2cc(CN3C(=O)c4ccc(Cl)cc4NC(=O)[C@H]3Cc3ccccn3)ccc2C(=O)O)CC1 [Example 22i] | 10000 to 35000 |
| O=C(Nc1cc(Cl)ccn1)c1ccc(CN2C(=O)c3ccc(Cl)cc3NC(=O)[C@H]2Cc2cccnc2)cc1 [Example 4r, (R)-4-((8-chloro-2,5-dioxo-3-(pyridin-3-ylmethyl)-2,3-dihydro-1H-benzo[e][1,4]diazepin-4(5H)-yl)methyl)-N-(4-chloropyridin-2-yl)benzamide] | < 100 |
| COc1cnc(NC(=O)c2ccc(CN3C(=O)c4ccc(Cl)cc4NC(=O)[C@H]3C)cc2)nc1 [Example 4be, (R)-4-((8-chloro-3-methyl-2,5-dioxo-2,3-dihydro-1H-benzo[e][1,4]diazepin-4(5H)-yl)methyl)-N-(5-methoxypyrimidin-2-yl)benzamide] | < 100 |
| O=C1CN(Cc2ccc(C(=O)Nc3ccccn3)cc2)C(=O)c2ccc(Cl)cc2N1 [Example 4am, 4-((8-chloro-2,5-dioxo-2,3-dihydro-1H-benzo[e][1,4]diazepin-4(5H)-yl)methyl)-N-(pyridin-2-yl)benzamide] | 100 to 999 |
| C[C@@H]1C(=O)Nc2cc(Cl)ccc2C(=O)N1Cc1ccc(C(=O)N2CCc3cccnc32)cc1 [Example 4y, (R)-8-chloro-4-(4-(2,3-dihydro-1H-pyrrolo[2,3-b]pyridine-1-carbonyl)benzyl)-3-methyl-3,4-dihydro-1H-benzo[e][1,4]diazepine-2,5-dione] | < 100 |
| Cc1ccc(NC(=O)c2ccc(CN3C(=O)c4ccc(Cl)cc4NC(=O)[C@H]3Cc3cscn3)cc2)nc1 [Example 4al, (R)-4-((8-chloro-2,5-dioxo-3-(thiazol-4-ylmethyl)-2,3-dihydro-1H-benzo[e][1,4]diazepin-4(5H)-yl)methyl)-N-(5-methylpyridin-2-yl)benzamide] | < 100 |

From patent US10669242B2 (priority 2016, dated 2020)
